We go through 36 sequences from the OligoGym collection.

“And” between values parts separate entries of the source, which are not always exact repeats. Equal values may be shown once. After the bases stand the sugars from the 5' end (letter, count) and the backbone: PS all phosphorothioate, else s phosphorothioate and o phosphodiester by linkage. Methylation of C is not given here. e = 2'-O-(2-methoxyethyl) (MOE); k = constrained ethyl (cEt); d = 2'-deoxy (DNA)

This series concerns the target SOD1. To be noted: ASO.

On to “GTCTCCAACATGCCTCT (sugars e3 k2 d7 k2 e3, PS)”, for which, where the note is “HepG2, 3 µM”, the target mRNA inhibition was 8%. “GAGGTCCTGGTTCCGAGGAC (sugars e5 d10 e5, PS)”: for the setting “HepG2, 4 µM”, the target mRNA inhibition amounted to 31%.

Take “TAAGATTACAGTGTTTA (sugars e3 k2 d7 k2 e3, PS)”: the target mRNA inhibition (HepG2, 3 µM) was found to be 54%. On the same count and under the same terms, for “AAATCTTCCAAGTGATC (sugars e3 k2 d7 k2 e3, PS)” the value was 4%; for “GATAGAGGATTAAAGTG (sugars e3 k2 d7 k2 e3, PS)”, 8%.

“TATTGGGCGATCCCAAT (sugars e2 k2 d9 k2 e2, PS)” gave a target mRNA inhibition (HepG2, 4 µM) of 6%. Regarding “TGCCCAAGTCATCTGCT (sugars e3 k2 d7 k2 e3, PS)”, for the setting “HepG2, 3 µM”, the target mRNA inhibition was determined as 90%. For “CTTTTAAGATTACAGTG (sugars e2 k2 d8 k2 e3, PS)”, under “HepG2, 5 µM”, the target mRNA inhibition was 62%. In turn, “ACATGGAATCCATGCAG (sugars e3 k2 d7 k2 e3, PS)” gave a target mRNA inhibition (HepG2, 3 µM) of 0%. For the setting “HepG2, 5 µM”, “AAGTTTAATACCCATCT (sugars e2 k2 d8 k2 e3, PS)” displayed a target mRNA inhibition of 54%. Still for that read-out and setting: under “GATCATAAATCAGTTTC (sugars e2 k2 d8 k2 e3, PS)” stands 34%. Under “HepG2, 4 µM”, “GAGACTACGACGCAAACCAG (sugars e5 d10 e5, PS)” gave a target mRNA inhibition of 23%.

In turn, “TTTATTGGGCGATCCCA (sugars e3 k2 d7 k2 e3, PS)” returned a target mRNA inhibition (HepG2, 3 µM) of 20%. In the case of “AACTATACAAATCTTCC (sugars e2 k2 d8 k2 e3, PS)”, the target mRNA inhibition (HepG2, 5 µM) is 60%. For “GGCCTCAGACTACATCC (sugars e3 k2 d7 k2 e3, PS)”, the target mRNA inhibition (HepG2, 3 µM) was 24%. Take “TTAATACCCATCTGTGATTT (sugars e5 d10 e5, PS)”: where the note is “HepG2, 5 µM”, the target mRNA inhibition came out at 11%. For the setting “HepG2, 3 µM”, “TGGAATCCATGCAGGCC (sugars e3 k2 d7 k2 e3, PS)” gave a target mRNA inhibition of 12%.

As to “TTGGATTCTTTTAATAG (sugars e2 k2 d8 k2 e3, PS)”, the target mRNA inhibition (HepG2, 5 µM) was 23%. “TTTTAGTTTGAATTTGGATT (sugars e5 d10 e5, PS)” displayed a target mRNA inhibition (HepG2, 5 µM) of 0%. Turning to “CCCAATTACACCACAAG (sugars e2 k2 d9 k2 e2, PS)”, the target mRNA inhibition is, setting by setting: (HepG2, 0.1875 µM) 25%; (HepG2, 0.75 µM) 52%; (HepG2, 3 µM) 82%; (HepG2, 4 µM) 74%; (HepG2, 12 µM) 97%. For “ATTGGGCGATCCCAATT (sugars e2 k2 d9 k2 e2, PS)”, under “HepG2, 4 µM”, the target mRNA inhibition was determined as 23%.

The sequence “CACTACAGGTACTTTAAAGC (sugars e5 d10 e5, PS)” returned a target mRNA inhibition (HepG2, 5 µM) of 18%. As for “AGTGTTTAATGTTTATCAGG (sugars e5 d10 e5, linkages s1 o3 s11 o3 s1)”, the target mRNA inhibition by setting is: (A431, 0.12 µM) 16%; (A431, 0.6 µM) 49%; (A431, 3 µM) 60%; (A431, 15 µM) 75%; (HepG2, 0.222 µM) 28%; (HepG2, 0.667 µM) 55%. In addition, the target mRNA inhibition worked out at 89% (HepG2, 2 µM) and 80% (HepG2, 6 µM). As for “GTCACACAATTACACTT (sugars e2 k2 d9 k2 e2, PS)”, the target mRNA inhibition (HepG2, 5 µM) is 35%. “TGTTTATTGGGCGATCC (sugars e2 k2 d8 k2 e3, PS)”: where the note is “HepG2, 4 µM”, the target mRNA inhibition was 50%. Take “CAGTCAGTCCTTTAATGCTT (sugars e5 d10 e5, PS)”: the target mRNA inhibition (HepG2, 5 µM) was 35% and 29%. The same measure, in the same setting: under “GTCTGGCAAAATACAGG (sugars e2 k2 d8 k2 e3, PS)” stands 30%.

Take “GAATCTTCAATAGACACATC (sugars e5 d10 e5, PS)”: the target mRNA inhibition (HepG2, 5 µM) was 22% and 11%. For “ATGTTTATCAGGATACA (sugars e2 k2 d8 k2 e3, linkages s1 o2 s9 o2 s2)”, the target mRNA inhibition by setting is: (A431, 0.12 µM) 2%; (A431, 0.6 µM) 4%; (A431, 3 µM) 12%; (A431, 15 µM) 52%; (HepG2, 0.222 µM) 53%; (HepG2, 0.667 µM) 73%. Besides, the target mRNA inhibition is, setting by setting: (HepG2, 2 µM) 89%; (HepG2, 6 µM) 90%. Under “HepG2, 4 µM”, “GGAATGTTTATTGGGCG (sugars e2 k2 d9 k2 e2, PS)” displayed a target mRNA inhibition of 58%. “TATTCACAGGCTTGAAT (sugars e2 k2 d8 k2 e3, PS)”: the target mRNA inhibition (HepG2, 5 µM) was 24%. Still for that read-out and setting: for “CCAATGATGCAATGGTCTCC (sugars e5 d10 e5, PS)” the value was 8%; for “TTAATACCCATCTGTGA (sugars e2 k2 d9 k2 e2, PS)”, 26%. In turn, “TGGGCGATCCCAATTAC (sugars e3 k2 d7 k2 e3, PS)” came in with a target mRNA inhibition (HepG2, 3 µM) of 20%. On to “TCCAAGGGAATGTTTAT (sugars e2 k2 d8 k2 e3, PS)”, for which the target mRNA inhibition (HepG2, 4 µM) is 27%. With “AATTACACTTTTAAGATTAC (sugars e5 d10 e5, PS)”, the target mRNA inhibition (HepG2, 5 µM) was 1%.
